According to patent publication US6331548A, “1-cycloalkyl-1,8-naphthyridin-4-one derivative as type IV phosphodiesterase inhibitor” (Suntory Limited, priority 1998, dated 2001):
Counter-ions that a name gives are not always drawn.

Biological target: type IV phosphodiesterase
Experiment: Type IV phosphodiesterase inhibiting activity
Type: biochemical, human
Conditions: U937 type IV phosphodiesterase fraction, 0.28 μM cAMP, pH 7.5, 30° C., 30 minutes; read-out: PDEIV-IC50
Experimental: The following assay was used to evaluate the ability of the compound of the present invention to suppress type IV phosphodiesterase, according to Biochemical. Pharmacol. 48 (6), 1219-1223 (1994).
1) Type IV phosphodiesterase activity fractions were prepared as follows. Namely, human histiocytic lymphoma cell line U937 was cultured in an RPMI1640 medium containing 10% fetal calf serum to obtain 10^9 cells of U937. The cells were recovered by centrifugation and suspended in 40 ml of buffer A (20 mM bis-tris, 5 mM 2-mercaptoethanol, 2 mM benzamidine, 2 mM EDTA, 0.1 mM 4-(2-aminoethyl)benzensulfonyl hydrochloride, 50 mM sodium acetate, pH=6.5). The cells were broken by a sonication and centrifuged (4° C., 10,000 G, 10 minutes) to obtain a supernatant. This was filtered by a 0.45 μm filter to obtain the soluble fraction.
2) The soluble fraction obtained was applied into a 1×10 cm DEAE Sepharose column equalibrated with the buffer A. 120 ml of the buffer A containing a linear gradient solution of 0.05 to 1M sodium acetate was used to separate the phosphodiesterase and recover 24 5-ml fractions. Each of the fractions was measured for the cAMP phosphodiesterase activity.
3) The test compound was reacted at a desired concentration in a reaction mixture containing 20 mM tris-HCl (pH 7.5), 1 mM MgCl2, 100 μM EDTA, 330 μg/ml calf serum albumin, 10 μg/ml 5'-nucleotidase, 0.4 μCi ^3 H-cAMP (0.28 μM cAMP) and the type IV phosphodiesterase stored solution at 30° C. for 30 minutes. QAE-Sephadex suspended in 10 mM of hepes-Na (pH -7.0) was added to the reaction mixture which was then allowed to stand for 5 minutes, then the supernatant was obtained, QAE-Sephadex was further added, to the supernatant, and was allowed to stand for 5 minutes, then the supernatant was obtained and measured for radioactivity.

In order of rising IC50:
1. O=C(Nc1c(Cl)cncc1Cl)c1cn(C2CCCC2)c2ncccc2c1=O [Example 150, N-(3,5-dichloropyridin-4-yl)-1-cyclopentyl-1,4-dihydro[1,8]naphthylidin-4-one-3-carboxamide]  0.3 nM
2. O=C(Nc1c(Cl)cncc1Cl)c1cn([C@@H]2CC[C@@H](O)C2)c2ncccc2c1=O [Example 79, N-(3,5-dichloropyridin-4-yl)-1-[(1R,3R)-3-(hydroxy)cyclopentyl]-1,4-dihydro[1,8]naphthylidin-4-one-3-carboxamide]  1.2 nM
3. CCOC(=O)N1CCC(n2cc(C(=O)Nc3c(Cl)cncc3Cl)c(=O)c3cccnc32)CC1 [Example 62, N-(3,5-dichloropyridin-4-yl)-1-(1-ethoxycarbonylpiperidin-4-yl)-1,4-dihydro[1,8]naphthylidin-4-one-3-carboxamide]  2.3 nM
4. CCN(CC)Cc1ccc(C(=O)O[C@H]2CC[C@H](n3cc(C(=O)Nc4c(Cl)cncc4Cl)c(=O)c4cccnc43)CC2)cc1 [Example 159, trans-4-[3-{[(3,5-dichloro-4-pyridinyl)amino]carbonyl}-4-oxo[1,8]naphthylidin-1(4H)-yl]cyclohexyl 4-(diethylaminomethyl)benzoate hydrochloride]  4 nM
5. CC1(O)CCC(n2cc(C(=O)Nc3c(Cl)cncc3Cl)c(=O)c3cccnc32)CC1 (stereo not shown) [Example 192, N-(3,5-dichloropyridin-4-yl)-1-(4-hydroxy-4-methylcyclohexyl)-1,4-dihydro[1,8]naphthylidin-4-one-3-carboxamide]  4.1 nM
6. CC(C)(C)C(=O)O[C@H]1CC[C@H](n2cc(C(=O)Nc3c(Cl)cncc3Cl)c(=O)c3cccnc32)CC1 [Example 128, trans-4-[3-{[(3,5-dichloro-4-pyridinyl)amino]carbonyl}-4-oxo[1,8]naphthylidin-1(4H)-yl]cyclohexylpivalate]  5.7 nM
7. O=C(O[C@H]1CC[C@H](n2cc(C(=O)Nc3c(Cl)cncc3Cl)c(=O)c3cccnc32)CC1)c1cccc(CN2CCOCC2)c1 [Example 162, trans-4-[3-{[(3,5-dichloro-4-pyridinyl)amino]carbonyl}-4-oxo[1,8]naphthylidin-1(4H)-yl]cyclohexyl 3-(morpholinomethyl)benzoate hydrochloride]  6 nM
8. CC(=O)O[C@H]1CC[C@H](n2cc(C(=O)Nc3c(Cl)cncc3Cl)c(=O)c3cccnc32)CC1 [Example 197, trans-4-[3-{[(3,5-dichloropyridin-4-yl)amino]carbonyl}-1,4-dihydro[1,8]naphthylidin-1-yl]cyclohexyl acetate]  6.2 nM
9. CN1CCN(Cc2ccc(C(=O)O[C@H]3CC[C@H](n4cc(C(=O)Nc5c(Cl)cncc5Cl)c(=O)c5cccnc54)CC3)cc2)CC1 [Example 133, trans-4-[3-{[(3,5-dichloro-4-pyridinyl)amino]carbonyl}-4-oxo[1,8]naphthylidin-1(4H)-yl]cyclohexyl 4-[(4-methylpiperazino)methyl]benzoate dihydrochloride]  7.3 nM
10. CCC(=O)O[C@H]1CC[C@H](n2cc(C(=O)Nc3c(Cl)cncc3Cl)c(=O)c3cccnc32)CC1 [Example 129, trans-4-[3-{[(3,5-dichloro-4-pyridinyl)amino]carbonyl}-4-oxo[1,8]naphthylidin-1(4H)-yl]cyclohexylpropionate]  9.3 nM
11. O=C(O[C@H]1CC[C@H](n2cc(C(=O)Nc3c(Cl)cncc3Cl)c(=O)c3cccnc32)CC1)c1ccccc1 [Example 130, trans-4-[3-{[(3,5-dichloro-4-pyridinyl)amino]carbonyl}-4-oxo[1,8]naphthylidin-1(4H)-yl]cyclohexylbenzoate]  50 nM
12. CS(=O)(=O)N[C@H]1CC[C@H](n2cc(C(=O)Nc3c(Cl)cncc3Cl)c(=O)c3cccnc32)CC1 [Example 72, N-(3,5-dichloropyridin-4-yl)-1-[trans-4-(methanesulfonylamino)cyclohexyl]-1,4-dihydro[1,8]naphthylidin-4-one-3-carboxamide]  110 nM
13. O=C(Nc1ccncc1)c1cn(C2CCC2)c2ncccc2c1=O [Example 144, N-(4-pyridyl)-1-cyclobutyl-1,4-dihydro[1,8]naphthylidin-4-one-3-carboxamide]  120 nM
14. Cc1cnccc1NC(=O)c1cn(C2CC2)c2ncccc2c1=O [Example 157, N-(3-methylpyridin-4-yl)-1-cyclopropyl-1,4-dihydro[1,8]naphthylidin-4-one-3-carboxamide]  130 nM
15. Cc1cnccc1NC(=O)c1cn([C@H]2CC[C@H](O)CC2)c2ncccc2c1=O [Example 174, N-(3-methylpyridin-4-yl)-1-(trans-4-hydroxycyclohexyl)-1,4-dihydro[1,8]naphthylidin-4-one-3-carboxamide]  130 nM
16. O=C(Nc1cccnc1)c1cn(C2CC2)c2ncccc2c1=O [Example 156, N-(3-pyridyl)-1-cyclopropyl-1,4-dihydro[1,8]naphthylidin-4-one-3-carboxamide]  150 nM
17. O=C1CCC(n2cc(C(=O)Nc3ccncc3)c(=O)c3cccnc32)CC1 [Example 61, N-(4-pyridyl)-1-(4-oxocyclohexyl)-1,4-dihydro[1,8]naphthylidin-4-one-3-carboxamide]  180 nM
18. O=C(Nc1ccncc1)c1cn([C@H]2CC[C@@H](O)CC2)c2ncccc2c1=O [Example 115, N-(4-pyridyl)-1-(cis-4-hydroxycyclohexyl)-1,4-dihydro[1,8]naphthylidin-4-one-3-carboxamide]  210 nM
19. N[C@H]1CC[C@H](n2cc(C(=O)Nc3c(Cl)cncc3Cl)c(=O)c3cccnc32)CC1 [Example 69, N-(3,5-dichloropyridin-4-yl)-1-(trans-4-aminocyclohexyl)-1,4-dihydro[1,8]naphthylidin-4-one-3-carboxamide acetate]  210 nM
20. O=C(Nc1ccncc1)c1cn([C@@H]2CCOC2)c2ncccc2c1=O [Example 38, N-(4-pyridyl)-1-[(R)-tetrahydro-3-furanyl]-1,4-dihydro[1,8]naphthylidin-4-one-3-carboxamide]  330 nM
21. Cc1cc(NC(=O)c2cn([C@H]3CC[C@H](O)CC3)c3ncccc3c2=O)sn1 [Example 176, N-(3-methylisothiazol-5-yl)-1-(trans-4-hydroxycyclohexyl)-1,4-dihydro[1,8]naphthylidin-4-one-3-carboxamide]  920 nM
22. O=C(NC1CC1)c1cn([C@H]2CC[C@H](O)CC2)c2ncccc2c1=O [Example 170, N-cyclopropyl-1-(trans-4-hydroxycyclohexyl)-1,4-dihydro[1,8]naphthylidin-4-one-3-carboxamide]  990 nM
23. Cc1nn(C)c(C)c1NC(=O)c1cn([C@H]2CC[C@H](O)CC2)c2ncccc2c1=O [Example 184, N-(1,3,5-trimethylpyrazol-4-yl)-1-(trans-4-hydroxycyclohexyl)-1,4-dihydro[1,8]naphthylidin-4-one-3-carboxamide]  2300 nM
24. Cc1cc(NC(=O)c2cn([C@H]3CC[C@H](O)CC3)c3ncccc3c2=O)on1 [Example 178, N-(3-methylisoxazol-5-yl)-1-(trans-4-hydroxycyclohexyl)-1,4-dihydro[1,8]naphthylidin-4-one-3-carboxamide]  3300 nM
25. Cc1noc(NC(=O)c2cn([C@H]3CC[C@H](O)CC3)c3ncccc3c2=O)c1C [Example 180, N-(3,4-dimethylisoxazol-5-yl)-1-(trans-4-hydroxycyclohexyl)-1,4-dihydro[1,8]naphthylidin-4-one-3-carboxamide]  4500 nM
